For assay [1], the system named is L6-myotubes. The assay is described as follows: Glucose uptake in differentiated L6-myotubes (Biological Example 2). Particulars: for Emax at 10 µM: read-out: Biological example 2 (GU). It is filed as cell-based. A digest of the protocol: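 Uptake was quantified as radioactivity in 0.2 M NaOH lysates after a 10 min pulse of 50 nM ^3H-2-deoxyglucose. The pulse followed two agonist exposures at 1×10^−5 M final (isoprenaline or test compound): 1 h 40 min, then 20 min in glucose-free medium after washing. L6 myotubes had been starved overnight in medium with 0.5% fatty-acid-free BSA.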

Assay [2] relates to L6-myotubes. The assay is described as follows: Measurement of intracellular cAMP levels in differentiated L6-myotubes (Biological Example 3). Format: cell-based. Particulars: for Emax at 10 µM: 0.25 h. The method, boiled down:
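Intracellular cAMP quantified by AlphaScreen after ethanol extraction and lysis of L6 myotubes. Cells were serum-starved overnight, then exposed for 15 min to compound (final 1×10^−5 M) or isoprenaline in IBMX-containing (1 mM) HBSS buffer, pH 7.4.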

Where [3] appears, read: glucose uptake in differentiated L6-myotubes, compound at 10 μM, activity relative to isoproterenol at 10 μM.
[4] abbreviates: intracellular cAMP in differentiated L6-myotubes, compound at 10 μM, activity relative to isoproterenol at 10 μM.
[5] abbreviates: glucose uptake, compound at 10 μM relative to isoproterenol at 10 μM.
Where [6] appears, read: intracellular cAMP, compound at 10 μM relative to isoproterenol at 10 μM.

Regarding `CC(C)(NC[C@H](O)c1cncc(F)c1)[C@H]1CC[C@@H](O)CC1` [Compound 286, (R)-1-(5-fluoro-3-pyridyl)-2-{1-methyl-1-[(1s,4S)-4-hydroxycyclohexyl]ethylamino}-1-ethanol], the Emax at 10 µM in assay [1] (setting [3]) is 25 to 50%; in assay [2] (setting [4]) it was less than 25%.
On the same counts, the results for `O[C@@H](CNC[C@H]1CC[C@H](OCc2ccccc2)CC1)c1cccc(F)c1` [Compound 271, (R)-1-(m-fluorophenyl)-2-({[(1r,4R)-4-(benzyloxy)cyclohexyl]methyl}amino)-1-ethanol] are 25 to 50% and less than 25%.
Take `CC(C)(NC[C@H](O)c1cccc(F)c1)[C@H]1CC[C@H](OCc2ccccc2)CC1` [Compound 279, (R)-1-(m-fluorophenyl)-2-{1-methyl-1-[(1r,4R)-4-(benzyloxy)cyclohexyl]ethylamino}-1-ethanol]: the Emax at 10 µM in assay [1] (setting [3]) was 50 to 75%; in assay [2] (setting [4]), less than 25%.
On the same counts, the results for `COc1ccc(CC23CCC([C@H](O)c4cccc(F)c4)(CC2)N3)cc1` [Compound 401, (R)-(m-fluorophenyl){4-[(p-methoxyphenyl)methyl]-7-azabicyclo[[2.2.1]]hept-1-yl}methanol] are greater than 75% and less than 25%.
The corresponding values for `CC12CCC([C@H](O)c3ccncc3F)(CC1)N2` [Compound 254, (R)-(3-fluoro-4-pyridyl)(4-methyl-7-azabicyclo[[2.2.1]]hept-1-yl)methanol] are less than 25% and less than 25%.
The corresponding values for `CO[C@H]1CC[C@@H](CCNC[C@H](O)c2cncc(F)c2)CC1` [Compound 238, (R)-1-(5-fluoro-3-pyridyl)-2-{2-[(1s,4S)-4-methoxycyclohexyl]ethylamino}-1-ethanol] are greater than 75% and less than 25%.
In the case of `CS(=O)(=O)N(Cc1ccccc1)[C@H]1CC[C@H](C[C@@H]2CC[C@H]([C@@H](O)c3cccc(F)c3)N2)CC1` [Compound 503, (S)-[(2R,5S)-5-({(1r,4S)-4-[(benzyl)-N-mesylamino]cyclohexyl}methyl)-2-pyrrolidinyl](m-fluorophenyl)methanol], the Emax at 10 µM in assay [1] (setting [3]) and in assay [2] (setting [4]) was less than 25% each time.
Regarding `CC1(C)CCC[C@H]([C@H](O)c2cccc(F)c2)N1` [Compound 102], the Emax at 10 µM is 50 to 75% in assay [1] (setting [5]) and less than 25% in assay [2] (setting [6]).
The corresponding values for `CCCCNC[C@H](O)c1csc(N)n1` [Compound 71, (S)-1-(2-amino-1,3-thiazol-4-yl)-2-(butylamino)-1-ethanol] are 25 to 50% and less than 25%.
Turning to `CO[C@H]1CC[C@H](CCC23CCC([C@@H](O)c4cccc(F)c4)(CC2)N3)CC1` [Compound 410], in assay [1] (setting [3]), the “Biological example 2 (GU)” value was “++ (if it is between 75 and 50% it is denoted with ++)”. Moreover, the “Biological example 3 (CAMP)” value in assay [2] (setting [4]) was “− (if it less than 25% it is denoted with −)”.
Take `CCCCNCC(O)c1cc(Cl)c(N)c(C(F)(F)F)c1` (centres unmarked) [Compound 32, 1-[4-amino-3-chloro-5-(trifluoromethyl)phenyl] -2-(butylamino)-1-ethanol]: the Emax at 10 µM in assay [1] (setting [5]) was greater than 75%; in assay [2] (setting [6]), 25 to 50%.
On the same counts, the results for `CC1(C)CC[C@H]([C@H](O)c2cccc(Cl)c2)N1` [Compound 154, (R)-[(R)-5,5-dimethyl-2-pyrrolidinyl](m-chlorophenyl)methanol] are greater than 75% and less than 25%.
As to `COC(=O)[C@H]1CC[C@@H](C(C)(C)NC[C@H](O)c2cncc(F)c2)CC1` [Compound 321, (1S,4s)-8-[(R)-2-(5-fluoro-3-pyridyl)-2-hydroxyethylamino]-7-methoxy-p-menthan-7-one], the values for the Emax at 10 µM in assay [1] (setting [3]) and in assay [2] (setting [4]) were 50 to 75% and less than 25%, respectively.
`O=C(N[C@H]1CC[C@H](CNC[C@H](O)c2cccc(F)c2)CC1)c1ccccc1` [Compound 315, N-[(1R,4r)-4-{[(R)-2-(m-fluorophenyl)-2-hydroxyethylamino]methyl}cyclohexyl] benzamide]: the Emax at 10 µM in assay [1] (setting [3]) is greater than 75%; in assay [2] (setting [4]) it was less than 25%.
As to `CCC[C@H]1CCC[C@H]([C@H](O)c2cccc(O)c2)N1` [Compound 64, (R)-[(2R,6S)-6-propyl-2-piperidyl](m-hydroxyphenyl)methanol], the Emax at 10 µM in assay [1] (setting [5]) is greater than 75%; in assay [2] (setting [6]), less than 25%.
Regarding `CC(C)(C[C@H]1CC[C@@H](NS(C)(=O)=O)CC1)NC[C@H](O)c1cccc(C#N)n1` [Compound 422, 6-[(S)-2-{1,1-dimethyl-2-[(1s,4R)-4-(mesylamino)cyclohexyl]ethylamino}-1-hydroxyethyl]-2-pyridinecarbonitrile], the Emax at 10 µM in assay [1] (setting [3]) is 50 to 75%; in assay [2] (setting [4]), less than 25%.
The corresponding values for `CC12CCC([C@@H](O)c3ccncc3F)(CC1)N2` [Compound 253, (S)-(3-fluoro-4-pyridyl)(4-methyl-7-azabicyclo[[2.2.1]]hept-1-yl)methanol] are less than 25% and less than 25%.
As to `CCCCNCC(O)c1ccc(F)c(N)c1F` (centres unmarked) [Compound 43, 1-(3-amino-2,4-difluorophenyl)-2-(butylamino)-1-ethanol], the Emax at 10 µM is greater than 75% in assay [1] (setting [5]) and less than 25% in assay [2] (setting [6]).
Take `CC(C)(C)NC[C@H](O)c1ccccc1F` [Compound 78, (R)-2-(tert-butylamino)-1-(o-fluorophenyl)-1-ethanol]: the results for the Emax at 10 µM in assay [1] (setting [5]) and in assay [2] (setting [6]) were greater than 75% and 25 to 50%, respectively.
On the same counts, the results for `CCC[C@@H]1CC[C@@H]([C@H](O)c2cccc(F)c2)N1` [Compound 132, (R)-[(2S,5R)-5-propyl-2-pyrrolidinyl](m-fluorophenyl)methanol] are 25 to 50% and less than 25%.
For `O[C@H](c1cncc(F)c1)[C@H]1CC[C@@H](Cc2ccc(Cl)cc2)N1` [Compound 404, (R)-{(2R,5S)-5-[(p-chlorophenyl)methyl]-2-pyrrolidinyl}(5-fluoro-3-pyridyl)methanol], the Emax at 10 µM was greater than 75% in assay [1] (setting [3]) and less than 25% in assay [2] (setting [4]).
On the same counts, the results for `CO[C@H]1CC[C@H](C[C@H]2CC[C@H]([C@@H](O)c3ccccc3F)N2)CC1` [Compound 338, (S)-[(2R,5R)-5-{[(1r,4R)-4-methoxycyclohexyl]methyl}-2-pyrrolidinyl](o-fluorophenyl)methanol] are 50 to 75% and less than 25%.
The corresponding values for `COc1ccc(CCC23CCC([C@H](O)c4cncc(F)c4)(CC2)N3)cc1` [Compound 542, (R)-(5-fluoro-3-pyridyl){4-[2-(p-methoxyphenyl)ethyl]-7-azabicyclo[[2.2.1]]hept-1-yl}methanol] are 50 to 75% and 25 to 50%.
The corresponding values for `CC1(C)C[C@@H]([C@H](O)c2cncc(F)c2)N1` [Compound 216] are 25 to 50% and less than 25%.
As to `CCCCNCC(O)c1cc(F)cc(F)c1` (centres unmarked) [Compound 55, 2-(butylamino)-1-(3,5-difluorophenyl)-1-ethanol], the Emax at 10 µM was 50 to 75% in assay [1] (setting [5]) and less than 25% in assay [2] (setting [6]).
As for `CO[C@H]1CC[C@H](C[C@@H]2CC[C@H]([C@H](O)c3cncc(F)c3)N2)CC1` [Compound 333], the Emax at 10 µM is 25 to 50% in assay [1] (setting [3]) and less than 25% in assay [2] (setting [4]).
Regarding `CCC[C@H]1CCC[C@@H]([C@@H](O)c2cccc(O)c2)N1` [Compound 121], the Emax at 10 µM in assay [1] (setting [5]) is greater than 75%; in assay [2] (setting [6]), less than 25%.
On the same counts, the results for `CCC[C@H]1CCC[C@H]([C@H](O)c2cncc(F)c2)N1` [Compound 140] are less than 25% and less than 25%.
With `O[C@H](c1cncc(F)c1)C12CCC(COCc3ccc(F)cc3)(CC1)N2` [Compound 443, (R)-(4-{[(p-fluorophenyl)methoxy]methyl}-7-azabicyclo[[2.2.1]]hept-1-yl)(5-fluoro-3-pyridyl)methanol], the Emax at 10 µM is greater than 75% in assay [1] (setting [3]) and 25 to 50% in assay [2] (setting [4]).
As to `CCCCNC[C@H](O)c1ccccc1F` [Compound 79, (R)-2-(butylamino)-1-(o-fluorophenyl)-1-ethanol], the Emax at 10 µM is greater than 75% in assay [1] (setting [5]) and less than 25% in assay [2] (setting [6]).
The corresponding values for `CCCCNC[C@H](O)c1cccc(F)c1F` [Compound 77, (R)-2-(butylamino)-1-(2,3-difluorophenyl)-1-ethanol] are greater than 75% and less than 25%.
As to `Oc1ccc(C(O)CNCC2CC2)cc1` (centres unmarked) [Compound 3, p-{2-[(cyclopropylmethyl)amino]-1-hydroxyethyl}phenol], the figures for the Emax at 10 µM in assay [1] (setting [5]) and in assay [2] (setting [6]) were 50 to 75% and less than 25%, respectively.
In the case of `CCC[C@H]1CCC[C@@H]([C@H](O)c2cccc(Cl)c2)N1` [Compound 123], the figures for the Emax at 10 µM in assay [1] (setting [5]) and in assay [2] (setting [6]) were 25 to 50% and less than 25%, respectively.
Take `CC12CC(C1)[C@H]([C@@H](O)c1cccc(N)c1F)N2` [Compound 243, (S)-{(R)-1-methyl-2-azabicyclo[[2.1.1]]hex-3-yl}(3-amino-2-fluorophenyl)methanol]: the figures for the Emax at 10 µM in assay [1] (setting [3]) and in assay [2] (setting [4]) were 50 to 75% and less than 25%, respectively.

(Values after US20260216294A1, “BETA 2-ADRENERGIC RECEPTOR AGONISTS FOR TREATMENT OR PREVENTION OF MUSCLE WASTING” (ATROGI AB, priority 2023, published 2026).)
